Assays:
[1] = test system: adenocarcinomic human alveolar basal epithelial cell line A549; experiment: High content analysis of anti-cancer agent by cell image analysis (Experimental Example 5); format: cell-based; details: 0.03 (w/v)% low-molecular agar medium; for average cell number per sphere / number of average spheres per 10 mm^2 / projected area: 10 days
Experimental: By a method similar to the preparation method of medium composition in Analysis Example 1, a medium composition containing 10 (v/v) % FBS, and 0.03 (w/v) % of low-molecular agar or agar for general use in DMEM (manufactured by Wako Pure Chemical Industries, Ltd.) was prepared. Paclitaxel (manufactured by Wako Pure Chemical Industries, Ltd.) was further added to a final concentration of 0.001 μM, 0.01 μM or 0.1 μM. Successively, adenocarcinomic human alveolar basal epithelial cell line A549 (manufactured by DS PHARMA BIOMEDICAL CO., LTD.) was seeded in the above-mentioned medium composition containing low-molecular agar at 5,000 cells/mL, and dispensed to the wells of a 96 well flat bottom ultra-low attachment surface microplate (manufactured by Corning Incorporated, #3474) at 100 μL per 1 well. Successively, the plate was cultured in a standing state in a CO2 incubator (37° C., 5% CO2) for 10 days.
Then, a solution of […] of Hoechst 33342 (manufactured by Invitrogen) in DMEM (phenol red, L-glutamine free) (manufactured by Wako Pure Chemical Industries, Ltd.) was prepared, and added, at 10 μL per 1 well, to the above-mentioned culture after static culture for 10 days, and the mixture was stood in a CO2 incubator (37° C., 5% CO2) for 45 min. Successively, a solution of 20 μg/mL Propidium Iodide (manufactured by BIOMOL) in DMEM (phenol red, L-glutamine free) (manufactured by Wako Pure Chemical Industries, Ltd.) was prepared and added at 10 μL per 1 well. The plate was centrifuged at 1,500 rpm for 10 min, and high content analysis was performed by cell image analysis using a cell imaging apparatus (“ArrayScan VTI HCS Reader”, manufactured by Thermo Fisher Scientific). At that time, observation was performed with 10 fields of view per well using a ×4 objective lens, cell outline and cell nucleus were detected from Hoechst33342 fluorescence image, and dead cells were detected from propidium iodide fluorescence image. In addition, 50% inhibitory concentration (nM) of paclitaxel by high content analysis was calculated with the number of constituent cells when the anticancer agent was added at the maximum concentration as 100% inhibition rate of sphere formation.
The observed images (area per 1 field: 1 mm^2) of A549 cells cultured for 10 days in the medium composition of the present invention containing low-molecular agar, negative control and comparison control (medium composition containing deacylated gellan gum) by a cell imaging apparatus are shown in FIG. 8. In addition, number of constituent cells of A549 cell spheres (average cell number per sphere), sphere number (average sphere number per 10 mm^2), projected area of sphere (size) (μm^2), obtained from the cell imaging analysis, are shown in Table 12. As for the negative control and comparison control, the relative cell number when the amount of luminescence without addition of the anticancer agent is 1 was determined from the measurement results of the surviving cell number using the intracellular ATP as an index, and shown in Table 13. Furthermore, the 50% inhibitory concentration (nM) of paclitaxel calculated from the amount of luminescence based on intracellular ATP and high content analysis are shown in Table 14.

[2] = test system: adenocarcinomic human alveolar basal epithelial cell line A549; experiment: CellTiter-Glo cell survival assay of anticancer agents (Experimental Example 8); format: cell-based; details: for IC50: Homo sapiens, A549, cell survival assay by luminescence, read-out: 50% inhibitory concentration
Experimental: Adenocarcinomic human alveolar basal epithelial cell line A549 (manufactured by DS PHARMA BIOMEDICAL CO., LTD.) was suspended in the above-mentioned medium composition containing low-molecular agar at 11,000 cells/mL. The above-mentioned cell suspension was dispensed to the wells of a 96 well flat bottom ultra-low attachment surface microplate (manufactured by Corning Incorporated, #3474) at 90 μL per 1 well. The plate was stood in a CO2 incubator (37° C., 5% CO2) overnight. […] Successively, the plate was further cultured in a standing state in a CO2 incubator (37° C., 5% CO2) for 7 days. As a negative control, a medium composition containing 10 (v/v) % FBS alone in DMEM (manufactured by Wako Pure Chemical Industries, Ltd.) was prepared. […] A549 cells were also suspended in each of the negative control and comparison control medium compositions, the negative control was dispensed to a 96 well flat bottom attachment surface microplate (manufactured by Corning Incorporated, #3585) and the comparison control was dispensed to a 96 well flat bottom ultra-low attachment surface microplate (manufactured by Corning Incorporated, #3474). […] CellTiter-Glo Luminescent Cell Viability Assay (manufactured by Promega) (100 μL) was added to the low-molecular agar-containing culture medium and each cell culture medium of the negative control and comparison control, the mixture was stood for 10 min at room temperature, and the amount of luminescence was measured by a microplate reader (“FlexStation 3”, manufactured by Molecular Devices) and according to the protocol recommended by Promega. The amount of luminescence of the medium alone was subtracted, whereby the number of viable cells was measured.

CC(=O)O[C@H]1C(=O)[C@@]2(C)[C@H]([C@H](OC(=O)c3ccccc3)[C@]3(O)C[C@H](OC(=O)[C@H](O)[C@@H](NC(=O)c4ccccc4)c4ccccc4)C(C)=C1C3(C)C)[C@]1(OC(C)=O)CO[C@@H]1C[C@@H]2O [paclitaxel, Paclitaxel]
IC50 ([1]; Homo sapiens, A549, high content analysis by cell image analysis, number of constituent cells, read-out: paclitaxel 50% inhibitory concentration): 1.9 nM | average cell number per sphere ([1]; paclitaxel 0.001 μM): 5.353 | number of average spheres per 10 mm^2 ([1]; paclitaxel 0.001 μM): 39.33 | projected area ([1]; paclitaxel 0.001 μM): 1161 μm^2 | average cell number per sphere ([1]; paclitaxel 0.01 μM): 1.52 | number of average spheres per 10 mm^2 ([1]; paclitaxel 0.01 μM): 18 | projected area ([1]; paclitaxel 0.01 μM): 578 μm^2 | average cell number per sphere ([1]; paclitaxel 0.1 μM): 1.165 | number of average spheres per 10 mm^2 ([1]; paclitaxel 0.1 μM): 6.333 | projected area ([1]; paclitaxel 0.1 μM): 402 μm^2 | IC50 ([2]; comparison control (0.015 (w/v)% deacylated gellan gum medium)): 4.5 nM | IC50 ([2]; low-molecular agar-containing medium): 4.9 nM | IC50 ([2]; negative control (DMEM, 10% FBS, attachment surface plate)): 4.1 nM | relative cell number (no anticancer agent = 100) ([2]; agent 0.001 μM, comparison control (0.015 (w/v)% deacylated gellan gum medium)): 99.9 | relative cell number (no anticancer agent = 100) ([2]; agent 0.001 μM, low-molecular agar-containing medium): 102.4 | relative cell number (no anticancer agent = 100) ([2]; agent 0.001 μM, negative control (DMEM, 10% FBS, attachment surface plate)): 100.1 | relative cell number (no anticancer agent = 100) ([2]; agent 0.01 μM, comparison control (0.015 (w/v)% deacylated gellan gum medium)): 23.5 | relative cell number (no anticancer agent = 100) ([2]; agent 0.01 μM, low-molecular agar-containing medium): 27 | relative cell number (no anticancer agent = 100) ([2]; agent 0.01 μM, negative control (DMEM, 10% FBS, attachment surface plate)): 18.8 | relative cell number (no anticancer agent = 100) ([2]; agent 0.1 μM, comparison control (0.015 (w/v)% deacylated gellan gum medium)): 10.8 | relative cell number (no anticancer agent = 100) ([2]; agent 0.1 μM, low-molecular agar-containing medium): 12.1 | relative cell number (no anticancer agent = 100) ([2]; agent 0.1 μM, negative control (DMEM, 10% FBS, attachment surface plate)): 5.5
